Assay results from ChEMBL document CHEMBL2384969, “Discovery and Optimization of Potent GPR40 Full Agonists Containing Tricyclic Spirocycles” (ACS Med Chem Lett, 2013).
Calls of active or inactive are those of the source. The rule behind the calls is not given here.

Assays:
[1] = Volume of distribution at steady state in cynomolgus monkey at 0.5 mg/kg, iv; format: ADME, organism-based, Macaca fascicularis; set-up: dose 0.5 mg/kg, route intravenous; conditions: in vivo, read-out: Vdss
Mus musculus [2] = experiment: Antidiabetic activity in high-fat diet fed streptozotocin-induced C57BL/6J mouse at 60 mg/kg, po by oral glucose tolerance test; format: functional, organism-based; set-up: dose 60 mg/kg
[3] = molecular target: T1, Thyrotropin-releasing hormone receptor (Homo sapiens) (UniProt P34981); experiment: Inhibition of human TRH1 receptor at 10 uM relative to control
T1 sequence (whole entry): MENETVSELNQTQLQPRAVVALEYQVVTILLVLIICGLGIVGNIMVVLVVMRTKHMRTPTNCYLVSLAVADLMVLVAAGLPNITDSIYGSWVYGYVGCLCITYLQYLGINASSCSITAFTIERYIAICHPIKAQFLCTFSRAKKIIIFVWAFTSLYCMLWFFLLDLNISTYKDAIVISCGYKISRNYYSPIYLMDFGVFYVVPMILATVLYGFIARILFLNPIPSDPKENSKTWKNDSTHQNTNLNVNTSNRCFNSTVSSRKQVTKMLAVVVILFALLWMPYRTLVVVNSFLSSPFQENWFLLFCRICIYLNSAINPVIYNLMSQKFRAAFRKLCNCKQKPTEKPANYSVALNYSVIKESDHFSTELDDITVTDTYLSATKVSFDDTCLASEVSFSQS

[4] = molecular target: Histamine H4 receptor (Homo sapiens) (UniProt Q9H3N8); experiment: Inhibition of human histamine H4 receptor at 10 uM relative to control
Histamine H4 receptor (Homo sapiens), sequence (Q9H3N8 whole entry): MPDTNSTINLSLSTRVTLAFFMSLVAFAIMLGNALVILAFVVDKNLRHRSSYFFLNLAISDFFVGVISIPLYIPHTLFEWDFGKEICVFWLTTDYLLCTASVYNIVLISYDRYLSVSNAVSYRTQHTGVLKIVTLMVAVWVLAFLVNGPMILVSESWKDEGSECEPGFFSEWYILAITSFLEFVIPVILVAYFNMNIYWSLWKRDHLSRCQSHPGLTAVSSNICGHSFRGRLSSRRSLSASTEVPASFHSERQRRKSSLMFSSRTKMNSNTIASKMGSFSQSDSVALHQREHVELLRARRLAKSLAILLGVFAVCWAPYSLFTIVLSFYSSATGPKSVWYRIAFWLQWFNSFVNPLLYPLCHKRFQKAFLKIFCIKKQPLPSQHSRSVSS

[5] = molecular target: T2, Gastrin/cholecystokinin type B receptor (Homo sapiens) (UniProt P32239); experiment: Inhibition of human CCK2 receptor at 10 uM relative to control
T2 sequence (whole entry): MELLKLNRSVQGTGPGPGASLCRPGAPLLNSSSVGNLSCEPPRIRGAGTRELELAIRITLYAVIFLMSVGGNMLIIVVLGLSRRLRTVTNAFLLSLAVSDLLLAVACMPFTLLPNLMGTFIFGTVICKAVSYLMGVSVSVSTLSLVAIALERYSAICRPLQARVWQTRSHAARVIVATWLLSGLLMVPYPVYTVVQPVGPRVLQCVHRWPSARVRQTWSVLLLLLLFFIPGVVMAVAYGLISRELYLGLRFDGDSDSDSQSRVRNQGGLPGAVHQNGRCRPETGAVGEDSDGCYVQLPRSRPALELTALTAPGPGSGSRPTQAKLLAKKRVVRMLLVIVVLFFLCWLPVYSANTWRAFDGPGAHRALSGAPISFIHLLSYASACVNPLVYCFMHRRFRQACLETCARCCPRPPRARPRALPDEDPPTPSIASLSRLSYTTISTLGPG

[6] = molecular target: Sodium-dependent noradrenaline transporter (Homo sapiens) (UniProt P23975); experiment: Inhibition of human norepinephrine transporter at 10 uM relative to control
Sodium-dependent noradrenaline transporter (Homo sapiens), sequence (P23975 whole entry): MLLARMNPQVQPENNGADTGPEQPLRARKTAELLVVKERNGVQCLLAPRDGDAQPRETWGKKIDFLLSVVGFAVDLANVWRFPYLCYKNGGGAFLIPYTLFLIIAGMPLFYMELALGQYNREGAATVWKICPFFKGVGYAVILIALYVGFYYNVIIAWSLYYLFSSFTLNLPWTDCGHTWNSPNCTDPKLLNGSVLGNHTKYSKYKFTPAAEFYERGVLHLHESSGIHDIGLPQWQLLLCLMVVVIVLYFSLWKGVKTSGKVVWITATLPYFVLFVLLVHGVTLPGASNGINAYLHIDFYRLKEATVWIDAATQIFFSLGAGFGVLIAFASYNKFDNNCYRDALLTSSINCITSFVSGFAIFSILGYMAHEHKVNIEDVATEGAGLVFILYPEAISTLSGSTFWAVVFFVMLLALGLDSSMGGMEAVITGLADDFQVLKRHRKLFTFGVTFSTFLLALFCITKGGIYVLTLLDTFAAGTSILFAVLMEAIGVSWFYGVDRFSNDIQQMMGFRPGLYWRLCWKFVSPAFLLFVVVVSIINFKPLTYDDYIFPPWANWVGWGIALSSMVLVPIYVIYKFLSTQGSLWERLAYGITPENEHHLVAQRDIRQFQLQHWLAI

[7] = molecular target: D(1A) dopamine receptor (Homo sapiens) (UniProt P21728); experiment: Inhibition of human dopamine D1 receptor at 10 uM relative to control
D(1A) dopamine receptor (Homo sapiens), sequence (P21728 whole entry): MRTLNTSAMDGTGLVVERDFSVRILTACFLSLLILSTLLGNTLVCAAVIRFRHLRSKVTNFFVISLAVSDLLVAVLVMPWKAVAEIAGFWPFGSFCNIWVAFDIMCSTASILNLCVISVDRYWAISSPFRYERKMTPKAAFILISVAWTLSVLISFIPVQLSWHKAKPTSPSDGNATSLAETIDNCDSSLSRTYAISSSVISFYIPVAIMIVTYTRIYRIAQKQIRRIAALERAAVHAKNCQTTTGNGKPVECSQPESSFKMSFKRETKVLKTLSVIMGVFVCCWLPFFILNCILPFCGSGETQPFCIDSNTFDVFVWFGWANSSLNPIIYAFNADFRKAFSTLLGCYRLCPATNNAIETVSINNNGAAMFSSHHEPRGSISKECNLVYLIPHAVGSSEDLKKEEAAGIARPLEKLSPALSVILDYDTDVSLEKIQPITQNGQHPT

[8] = Oral bioavailability in Sprague-Dawley rat at 2 mg/kg; format: ADME, organism-based; conditions: in vivo
[9] = molecular target: T3, Adenosine receptor A1 (Homo sapiens) (UniProt P30542); experiment: Inhibition of human adenosine A1 receptor at 10 uM relative to control
T3 sequence (whole entry): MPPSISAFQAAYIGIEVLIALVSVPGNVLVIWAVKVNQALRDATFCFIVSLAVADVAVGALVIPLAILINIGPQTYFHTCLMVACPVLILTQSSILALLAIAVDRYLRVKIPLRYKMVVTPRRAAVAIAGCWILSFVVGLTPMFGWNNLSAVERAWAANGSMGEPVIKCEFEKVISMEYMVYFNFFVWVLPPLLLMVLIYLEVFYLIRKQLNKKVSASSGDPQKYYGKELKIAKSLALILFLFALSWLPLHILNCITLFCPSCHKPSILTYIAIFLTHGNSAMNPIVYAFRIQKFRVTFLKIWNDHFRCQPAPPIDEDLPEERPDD

[10] = molecular target: Kappa-type opioid receptor (Rattus norvegicus) (UniProt P34975); experiment: Inhibition of rat kappa opioid receptor at 10 uM relative to control
Kappa-type opioid receptor (Rattus norvegicus), sequence (P34975 whole entry): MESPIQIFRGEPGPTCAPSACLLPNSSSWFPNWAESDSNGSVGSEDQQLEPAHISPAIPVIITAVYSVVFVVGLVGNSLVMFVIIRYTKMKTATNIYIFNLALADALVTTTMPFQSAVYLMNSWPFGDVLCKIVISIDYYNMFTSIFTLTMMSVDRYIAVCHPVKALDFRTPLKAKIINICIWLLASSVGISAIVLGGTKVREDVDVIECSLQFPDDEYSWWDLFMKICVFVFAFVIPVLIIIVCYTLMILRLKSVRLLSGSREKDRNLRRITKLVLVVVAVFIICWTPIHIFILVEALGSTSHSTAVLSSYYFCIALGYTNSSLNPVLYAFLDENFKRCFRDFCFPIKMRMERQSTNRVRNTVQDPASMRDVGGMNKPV

[11] = Volume of distribution at steady state in Sprague-Dawley rat at 0.5 mg/kg, iv; format: ADME, organism-based; set-up: dose 0.5 mg/kg, route intravenous; conditions: in vivo, read-out: Vdss
[12] = molecular target: T4, Free fatty acid receptor 1 (Homo sapiens, UniProt O14842); experiment: Agonist activity at human FFA1 receptor expressed in CHO cell membranes after 4 hrs by aequorin bioluminescence assay relative to AM-1638; format: cell-based
T4 sequence (O14842 whole entry): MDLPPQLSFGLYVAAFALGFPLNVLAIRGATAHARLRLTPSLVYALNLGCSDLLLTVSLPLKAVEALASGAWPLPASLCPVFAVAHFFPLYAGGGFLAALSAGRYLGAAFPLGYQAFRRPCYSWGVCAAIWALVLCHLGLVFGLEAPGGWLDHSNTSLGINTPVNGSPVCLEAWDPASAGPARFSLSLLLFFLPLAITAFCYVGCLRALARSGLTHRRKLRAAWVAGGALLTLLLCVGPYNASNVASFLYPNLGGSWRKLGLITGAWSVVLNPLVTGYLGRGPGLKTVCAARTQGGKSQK

[13] = molecular target: T4, Free fatty acid receptor 1; experiment: Agonist activity at human FFA1 receptor expressed in CHO cell membranes after 4 hrs by aequorin bioluminescence assay; format: cell-based
[14] = Half life in cynomolgus monkey at 0.5 mg/kg, iv; format: ADME, organism-based, Macaca fascicularis; set-up: dose 0.5 mg/kg, route intravenous; conditions: in vivo
[15] = Half life in Sprague-Dawley rat at 0.5 mg/kg, iv; format: ADME, organism-based; set-up: dose 0.5 mg/kg, route intravenous; conditions: in vivo
Mus musculus [16] = experiment: Antidiabetic activity in high-fat diet fed streptozotocin-induced C57BL/6J mouse assessed as improvement in glucose AUC at 30 mg/kg, po by oral glucose tolerance test relative to control; format: functional
Pancreatic islet [17] = experiment: Potentiation of glucose-stimulated insulin secretion in human pancreatic islets at 0.01 uM to 10 uM; format: functional
[18] = molecular target: Free fatty acid receptor 1 (Rattus norvegicus) (UniProt Q8K3T4); experiment: Agonist activity at FFA1 receptor in Sprague-Dawley rat fetal intestinal cells assessed as stimulation of GIP secretion after 1 hr by ELISA relative to AM-1638
Free fatty acid receptor 1 (Rattus norvegicus), sequence (Q8K3T4 whole entry): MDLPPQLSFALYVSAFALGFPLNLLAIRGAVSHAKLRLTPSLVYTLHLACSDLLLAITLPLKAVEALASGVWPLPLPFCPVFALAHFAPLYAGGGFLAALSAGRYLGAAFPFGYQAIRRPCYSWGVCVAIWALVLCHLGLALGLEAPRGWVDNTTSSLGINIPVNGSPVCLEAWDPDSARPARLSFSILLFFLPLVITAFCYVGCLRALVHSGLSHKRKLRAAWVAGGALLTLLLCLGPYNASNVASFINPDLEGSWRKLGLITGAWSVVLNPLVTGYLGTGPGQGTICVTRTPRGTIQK

Mus musculus [19] = experiment: Antidiabetic activity in high-fat diet fed streptozotocin-induced C57BL/6J mouse assessed as increase in insulin secretion at 30 mg/kg, po by oral glucose tolerance test; format: functional, organism-based; set-up: dose 30 mg/kg
[20] = molecular target: Free fatty acid receptor 1 (Rattus norvegicus) (UniProt Q8K3T4); experiment: Agonist activity at FFA1 receptor in Sprague-Dawley rat fetal intestinal cells assessed as stimulation of GIP secretion after 1 hr by ELISA
[21] = Oral bioavailability in cynomolgus monkey at 2 mg/kg; format: ADME, organism-based, Macaca fascicularis; conditions: in vivo
[22] = Clearance in Sprague-Dawley rat at 0.5 mg/kg, iv; format: ADME, organism-based; set-up: dose 0.5 mg/kg, route intravenous; conditions: in vivo
[23] = Clearance in cynomolgus monkey at 0.5 mg/kg, iv; format: ADME, organism-based, Macaca fascicularis; set-up: dose 0.5 mg/kg, route intravenous; conditions: in vivo
Pancreatic islet [24] = experiment: Potentiation of glucose-stimulated insulin secretion in mouse pancreatic islets at 0.01 uM to 10 uM; format: functional
[25] = molecular target: T4, Free fatty acid receptor 1; experiment: Positive cooperativite binding to human FFA1 receptor expressed in CHO cell membranes assessed as enhancement of specific binding of [3H]AMG 837 by reciprocal competition assay
[26] = molecular target: Free fatty acid receptor 1 (Rattus norvegicus) (UniProt Q8K3T4); experiment: Agonist activity at FFA1 receptor in Sprague-Dawley rat fetal intestinal cells assessed as stimulation of GLP1 secretion after 1 hr by ELISA
[27] = molecular target: Free fatty acid receptor 1 (Rattus norvegicus) (UniProt Q8K3T4); experiment: Agonist activity at FFA1 receptor in Sprague-Dawley rat fetal intestinal cells assessed as stimulation of GLP1 secretion after 1 hr by ELISA relative to AM-1638

For `COc1ccc(F)c(-c2ccc(COc3cccc([C@@H](CC(=O)O)C4CC4)c3)cc2C2=CCCC2(C)C)c1`, the Vd [1] was 2 L/kg, the Activity (Mus musculus [2]) was “Active” and the inhibition [3] was > 70%. The inhibition [4] was > 70%, the inhibition [5] was > 70% and the inhibition [6] was > 70%. The inhibition [7] was > 70%, the bioavailability [8] was 15% and the inhibition [9] was > 70%. The inhibition [10] was > 70% and the Vd [11] was 1.1 L/kg.

For `COc1ccc(F)c(-c2ccc(COc3ccc4c(c3)[C@@]3(CC4)C[C@@H]3C(=O)O)cc2C2=CCCC2(C)C)c1`, the Emax [12] was 12% and the EC50 [13] was > 30000 nM.

For `COc1ccc(F)c(-c2ccc(COc3ccc4c(c3)[C@@]3(CC4)C[C@H]3C(=O)O)cc2C2=CCCC2(C)C)c1`, the Emax [12] was 27% and the EC50 [13] was 3780 nM.

With `COc1ccc(F)c(-c2ccc(COc3ccc4c(c3)[C@@H]3[C@H](C4)[C@@H]3C(=O)O)cc2C2=CCCC2(C)C)c1` the Emax [12] was 10% and the EC50 [13] was > 30000 nM.

For `COc1ccc(F)c(-c2ccc(COc3ccc4c(c3)[C@]3(CCC4)C[C@H]3C(=O)O)cc2C2=CCCC2(C)C)c1`, the Emax [12] was 98% and the EC50 [13] was 150 nM.

In the case of `COc1ccc(F)c(-c2ccc(COc3ccc4c(c3)[C@]3(CCC4)CC[C@H]3C(=O)O)cc2C2=CCCC2(C)C)c1`, the Emax [12] is reported as 83% and the EC50 [13] is reported as 350 nM.

With `COc1ccc(F)c(-c2ccc(COc3ccc4c(c3)[C@]3(CC4)C[C@H]3C(=O)O)cc2[C@@H]2CCCC2(C)C)c1` the half-life [14] was 2.2 h, the Vd [1] was 1.4 L/kg and the half-life [15] was 4.2 h. For the same compound, the Activity (Mus musculus [16]) was 48%, the Activity (Pancreatic islet [17]) was “Active” and the fold change (FC) [18] was 2. For the same compound, the Activity (Mus musculus [19]) was “Active”, the Activity [20] was “Active” and the Emax [12] was 101%. The inhibition [3] was < 70%, the inhibition [4] was < 70% and the inhibition [5] was < 70%. The bioavailability [21] was 69%, the EC50 [13] was 81 nM and the clearance [22] was 4.17 mL/min/kg. The inhibition [6] was < 70%, the clearance [23] was 14 mL/min/kg and the Activity (Pancreatic islet [24]) was “Active”. The Activity [25] was “Active”, the inhibition [7] was < 70% and the bioavailability [8] was 28%. For the same compound, the Activity [26] was “Active”, the inhibition [9] was < 70% and the inhibition [10] was < 70%. It also gave a Vd [11] of 0.7 L/kg and a fold change (FC) [27] of 2.

For `COc1ccc(F)c(-c2ccc(COc3ccc4c(c3)[C@]3(CC4)C[C@@H]3C(=O)O)cc2C2=CCCC2(C)C)c1`, the Emax [12] was 5% and the EC50 [13] was > 30000 nM.

`COc1ccc(F)c(-c2ccc(COc3ccc4c(c3F)[C@]3(CCC4)C[C@H]3C(=O)O)cc2[C@@H]2CCCC2(C)C)c1` gave an Emax [12] of 90% and an EC50 [13] of 98 nM.

Work on `COc1ccc(F)c(-c2ccc(COc3ccc4c(c3)[C@]3(CC4)CC[C@H]3C(=O)O)cc2C2=CCCC2(C)C)c1` yielded an Emax [12] of 92% and an EC50 [13] of 520 nM.

In the case of `COc1ccc(F)c(-c2ccc(COc3ccc4c(c3)[C@H]3[C@@H](C4)[C@@H]3C(=O)O)cc2C2=CCCC2(C)C)c1`, the Emax [12] is reported as 99% and the EC50 [13] is reported as 1420 nM.

Work on `COc1ccc(F)c(-c2ccc(COc3ccc4c(c3)[C@]3(CC4)C[C@H]3C(=O)O)cc2C2=CCCC2(C)C)c1` yielded an Emax [12] of 100% and an EC50 [13] of 180 nM.

In the case of `COc1cc(-c2ccc(COc3ccc4c(c3F)[C@]3(CCC4)C[C@H]3C(=O)O)cc2[C@@H]2CCCC2(C)C)c(F)cn1`, the half-life [14] is reported as 3.7 h, the Vd [1] is reported as 0.4 L/kg and the half-life [15] is reported as 4.1 h. For the same compound, the Emax [12] was 90%, the inhibition [3] was < 70% and the inhibition [4] was < 70%. The inhibition [5] was < 70%, the bioavailability [21] was 44% and the EC50 [13] was 105 nM. The clearance [22] was 2.83 mL/min/kg, the inhibition [6] was < 70% and the clearance [23] was 1.83 mL/min/kg. The inhibition [7] was < 70%, the bioavailability [8] was 61% and the inhibition [9] was < 70%. The inhibition [10] was < 70% and the Vd [11] was 0.8 L/kg.

In the case of `COc1ccc(F)c(-c2ccc(COc3ccc4c(c3)[C@]3(CC4)C[C@H]3C(=O)O)cc2[C@H]2CCCC2(C)C)c1`, the Emax [12] is reported as 104% and the EC50 [13] is reported as 212 nM.

For `COc1ccc(F)c(-c2ccc(COc3ccc4c(c3)[C@@H]3[C@H](C4)[C@H]3C(=O)O)cc2C2=CCCC2(C)C)c1`, the Emax [12] was 15% and the EC50 [13] was > 30000 nM.

`COc1ccc(F)c(-c2ccc(COc3ccc4c(c3)[C@]3(CCC4)C[C@H]3C(=O)O)cc2[C@@H]2CCCC2(C)C)c1` gave an Emax [12] of 101% and an EC50 [13] of 92 nM.

For `COc1ccc(F)c(-c2ccc(COc3ccc4c(c3)[C@H]3[C@@H](C4)[C@H]3C(=O)O)cc2C2=CCCC2(C)C)c1`, the Emax [12] was 17% and the EC50 [13] was > 30000 nM.
